Measured values published in patent US4960698A, “Process for producing L-654,040, antibacterial agent” (Merck & Co., Inc., priority 1989, dated 1990).
In brackets after ≈: the same amount, converted by molar mass. Entries after “also recorded” stand apart in the source; their conditions may differ.

Tests used:
[1] = system: Eubcterium limosum 3344; test: agar dilution MIC, anaerobic, Wilkens-Chalgren agar; format: cell-based; details: 10^6 cfu/spot, 35° C., 48 hours
Method: (a) Wilkens-Chalgren agar was used instead of antagonist-free medium (Roche);
(b) The inoculum/spot was about 10^6 instead of about 10^4 ;
(c) The incubation period was for 48 hours, not 24 hours; and
(d) Incubations were performed under anaerobic conditions.
*Agar dilution assay, multipoint inoculator, WilkensChalgren agar,
inoculum 10^6 cfu/spot, incubation at 35° C. for 48 hours.

[2] = solubility in water; details: water solutions for injection
[3] = system: Pasteurella multocida (4678); test: protection and survival of infected mice; details: intraperitoneal; for survival time: 160 mg/kg ×2
[4] = system: Staph. aureus 2865; test: agar dilution MIC, antagonist-free medium (Roche); details: Table II
[5] = system: Bordetella bronchiseptica (3771); test: protection and survival of infected mice; details: intraperitoneal, 160 mg/kg ×2
[6] = system: Pasteurella multocida; test: combined therapy with erythromycin in infected mice; details: intraperitoneal, vs erythromycin alone
[7] = system: E. coli DC2 4353; test: agar dilution MIC, antagonist-free medium (Roche); details: E. coli permeability mutant, Table II
[8] = system: numerous microorganisms; test: in vitro antibacterial potency (general statement); format: cell-based
[9] = mouse, in vivo

SMILES: CO[C@@]1(NC(=O)Cc2cccs2)C(=O)N2C(C(=O)O)=C(COC(N)=O)CS[C@@H]21 [CEFOXITIN, Cefoxitin, reference compound]
- MIC [1]: 1 µg/mL (≈ 2.34 µM)

SMILES: C[C@H](CNC(=O)[C@H]1N=C(c2cccc(O)c2O)O[C@@H]1C)C(=O)N[C@@H]1CCCN(O)C1=O [L-654,040]
- MIC [1]: 128 µg/mL (≈ 295 µM)
- solubility in water (in words) [2]: limited solubility
- statistical significance of prolonged survival (in words) [3]: statistically significant at one level in two Pasteurella tests
- survival time ([3]; 160 mg/kg): prolongation of survival time was observed; also recorded: increases survival time
- survival time ([3]; listed as L-654.040, 160 mg/kg): did prolong the survival time
- sensitivity of strain [4]: sensitive
- survival time ([5]; 160 mg/kg): prolongation of survival time was observed
- survival time ([5]; listed as L-654.040, 160 mg/kg): did prolong the survival time
- efficacy of combined therapy with erythromycin [6]: slightly more effective than erythromycin alone but not to a degree considered to be synergistic
- sensitivity of strain [7]: sensitive
- potency in vitro [8]: showing potency in vitro against numerous microorganisms
- tolerability in uninfected mice [9]: tolerated by uninfected mice
